Results on twelve molecules are retold here after PubChem BioAssay (NCI).

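Assay format: 96-well plates, 48-hour exposure. GI50: concentration for 50% inhibition of growth. Definition used: TGI = concentration required for complete inhibition of growth.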

Some test systems named below: EKVX NSCLC; HL-60(TB) leukemia; HT29 colon; K-562 leukemia; OVCAR-5 ovarian; SF-295 CNS; SK-MEL-5 melanoma; SNB-19 CNS; T-47D breast.
Holding throughout (assay): NCI-60 cell line screen, 48 h

In the case of `O=C(NCc1ccc(Cl)c(Cl)c1)c1nc2ccccc2nc1NCc1ccc(Cl)c(Cl)c1`, the TGI with EKVX NSCLC, with HL-60(TB) leukemia, with HT29 colon, with K-562 leukemia, in the experiment on OVCAR-5 ovarian and in the experiment on SF-295 CNS was over 100 µM in each case. For the same molecule, the TGI in the experiment on SK-MEL-5 melanoma, with SNB-19 CNS and in the experiment on T-47D breast was over 100 µM in each case.

In the case of `CC(=O)OC/C=C/Cn1nc(Br)c(=O)[nH]c1=O`, the TGI with EKVX NSCLC, in the experiment with HL-60(TB) leukemia, with HT29 colon, in the experiment with K-562 leukemia, with OVCAR-5 ovarian and in the experiment on SF-295 CNS was over 100 µM each time. Also, the TGI in the experiment with SK-MEL-5 melanoma, with SNB-19 CNS and with T-47D breast was over 100 µM each time.

As to `C[C@@H](c1ccccc1)N(CC#N)[C@H]1CCC[C@]1(O)/C=C/c1ccc2c(c1)OCO2`, the TGI with EKVX NSCLC, in the experiment on HL-60(TB) leukemia, in the experiment on HT29 colon, in the experiment on K-562 leukemia, with OVCAR-5 ovarian and with SF-295 CNS was over 25 µM in each case. For the same molecule, the TGI in the experiment with SK-MEL-5 melanoma, in the experiment on SNB-19 CNS and in the experiment with T-47D breast was over 25 µM each time.

Consider `Clc1cc2ncn(C3CCCO3)c2cc1Cl` (stereo not given), for which the TGI in the experiment with EKVX NSCLC, in the experiment with HL-60(TB) leukemia, in the experiment with HT29 colon, with K-562 leukemia, with OVCAR-5 ovarian and with SF-295 CNS was over 100 µM each time. Moreover, the TGI in the experiment on SK-MEL-5 melanoma, in the experiment with SNB-19 CNS and in the experiment on T-47D breast was over 100 µM throughout.

For the molecule `COc1cc(O)c2c(=O)c(O)c(-c3ccc(O)c(O)c3)oc2c1`, the TGI in the experiment with EKVX NSCLC was over 100 µM; in the experiment with HL-60(TB) leukemia, 12.8 µM; in the experiment with HT29 colon it was 48.4 µM; in the experiment on K-562 leukemia, over 100 µM; with OVCAR-5 ovarian, 47.8 µM; with SF-295 CNS it was 72.3 µM. The TGI in the experiment on SK-MEL-5 melanoma is 58.6 µM; in the experiment on SNB-19 CNS it was over 100 µM; with T-47D breast it was over 100 µM.

Take `Cc1cc(NS(=O)(=O)c2ccc(NC(NC(=O)OC(C)C)(C(F)(F)F)C(F)(F)F)cc2)nc(C)n1`: the TGI in the experiment with EKVX NSCLC, with HL-60(TB) leukemia, in the experiment on HT29 colon, in the experiment on K-562 leukemia, with OVCAR-5 ovarian and with SF-295 CNS was over 100 µM in each case. Further, the TGI in the experiment with SK-MEL-5 melanoma, with SNB-19 CNS and with T-47D breast was over 100 µM in each case.

In the case of `N#Cc1c2c(c(Nc3ccc(Cl)cc3)n3c1nc1ccccc13)CCCC2`, the TGI in the experiment on EKVX NSCLC, in the experiment on HL-60(TB) leukemia, in the experiment on HT29 colon, in the experiment on K-562 leukemia, with OVCAR-5 ovarian and with SF-295 CNS was over 100 µM each time. In addition, the figures for the TGI in the experiment with SK-MEL-5 melanoma, with SNB-19 CNS and in the experiment on T-47D breast were over 100 µM, over 64.2 µM and over 100 µM, respectively.

As to `CN1Cc2c(ccc3c2OCO3)[C@@H]2[C@H](O)Cc3cc4c(cc3[C@@H]21)OCO4`, the TGI in the experiment with EKVX NSCLC was over 100 µM; with HL-60(TB) leukemia, 4.36 µM; in the experiment with HT29 colon, 5.12 µM; in the experiment on K-562 leukemia, over 100 µM; in the experiment on OVCAR-5 ovarian, over 100 µM; in the experiment on SF-295 CNS it was 21.6 µM. Also, the TGI with SK-MEL-5 melanoma is 40 µM; in the experiment on SNB-19 CNS, over 26.5 µM; with T-47D breast, over 100 µM.

For `NNC(=O)COc1nc(-c2cccs2)nc2ccc(I)cc12`, the TGI was 71 µM in the experiment on EKVX NSCLC; over 100 µM with HL-60(TB) leukemia; over 100 µM in the experiment on HT29 colon; over 100 µM with K-562 leukemia; over 100 µM in the experiment with OVCAR-5 ovarian; 86.2 µM in the experiment with SF-295 CNS. The TGI in the experiment with SK-MEL-5 melanoma was 45 µM; in the experiment on SNB-19 CNS it was 39.2 µM; in the experiment on T-47D breast, 21.9 µM. Also, the GI50 with HL-60(TB) leukemia is 37.9 µM; with K-562 leukemia, 37 µM.

Take `O=C1c2sccc2C(=O)c2c(CO)csc21`: the TGI was 26.6 µM with EKVX NSCLC; 6.08 µM in the experiment with HL-60(TB) leukemia; 9.55 µM with HT29 colon; over 100 µM with K-562 leukemia; over 53 µM in the experiment on OVCAR-5 ovarian; 8.04 µM with SF-295 CNS. In addition, the TGI was 2.2 µM in the experiment with SK-MEL-5 melanoma, 20.8 µM with SNB-19 CNS and 17.5 µM in the experiment on T-47D breast.

With `CCCCCCCCCCCCCCCC(=O)OCC(COP(=O)(O)OCCNC(=O)CCSSc1ccccn1)OC(=O)CCCCCCCCCCCCCCC` (stereo not given), the TGI in the experiment on EKVX NSCLC, in the experiment with HL-60(TB) leukemia, in the experiment on HT29 colon, in the experiment on K-562 leukemia, in the experiment on OVCAR-5 ovarian and in the experiment with SF-295 CNS was over 100 µM throughout. For the same molecule, the TGI with SK-MEL-5 melanoma, in the experiment with SNB-19 CNS and in the experiment with T-47D breast was over 100 µM throughout.

As to `CNC(=O)N(C)C(=O)c1ccccc1C(=O)N(C)C(=O)NC`, the TGI in the experiment with EKVX NSCLC, in the experiment with HL-60(TB) leukemia, in the experiment on HT29 colon, in the experiment on K-562 leukemia, with OVCAR-5 ovarian and with SF-295 CNS was over 10 µM throughout. Further, the TGI with SK-MEL-5 melanoma, with SNB-19 CNS and with T-47D breast was over 10 µM each time.
